Assays:
[1] = Oral clearance of SPP100 following single oral dose of SPP100 300 mg capsule studied in healthy human; format: ADME, organism-based; details: plasma
[2] = % of radioactivity recovered as aliskiren in faeces following intravenous administration of [14C] aliskiren hemifumarate at 10 mg.Kg-1 level in rat; format: ADME, organism-based, Albino HAN:WIST, Feces; details: in vivo
[3] = % SPP100 recovered of receiver rat following duodenal infusion of radioactivity through bile from donor rat treated with single intravenous administration of 10 mg.Kg-1 [14C] aliskiren hemifumarate; format: ADME, organism-based, HAN:WIST(SPF); details: in vivo
[4] = Mean excretion of radioactivity (24-48h) in urine and faeces following single intravenous dose of 10 mg.Kg-1 [14C] aliskiren hemifumarate in mouse; format: ADME, organism-based, TgRasH2, Urine/Feces; details: in vivo
[5] = biological target: Cytochrome P450 3A4/3A5 (Homo sapiens, UniProt P08684+P20815); assay: Estimated contribution of CYP3A4/5 to oxidative metabolism of [14C] aliskiren hemifumarate based on studies with microsomes from baculovirus-infected insect cells expressing recombinant human CYP450s and studies with pooled human liver microsomes from 22 donors; format: ADME, Microsome
[6] = Excretion of radioactivity (24-48h) in urine following single oral dose of 100 mg.Kg-1 [14C] aliskiren hemifumarate in rat; format: ADME, organism-based, Albino HAN:WIST; details: in vivo
[7] = Excretion of radioactivity (24-48h) in faeces following single oral dose of 500 mg.Kg-1 [14C] aliskiren hemifumarate in mouse; format: ADME, organism-based, TgRasH2, Feces; details: in vivo
[8] = biological target: Cytochrome P450 2E1 (Homo sapiens, UniProt P05181); assay: Activity of human recombinant CYP2E1 assessed as enzyme contribution (% total relative CL) towards [14C]SPP100 hemifumarate metabolism in human liver microsome; format: ADME; details: microsomes
Sequence of Cytochrome P450 2E1 (P05181 whole entry): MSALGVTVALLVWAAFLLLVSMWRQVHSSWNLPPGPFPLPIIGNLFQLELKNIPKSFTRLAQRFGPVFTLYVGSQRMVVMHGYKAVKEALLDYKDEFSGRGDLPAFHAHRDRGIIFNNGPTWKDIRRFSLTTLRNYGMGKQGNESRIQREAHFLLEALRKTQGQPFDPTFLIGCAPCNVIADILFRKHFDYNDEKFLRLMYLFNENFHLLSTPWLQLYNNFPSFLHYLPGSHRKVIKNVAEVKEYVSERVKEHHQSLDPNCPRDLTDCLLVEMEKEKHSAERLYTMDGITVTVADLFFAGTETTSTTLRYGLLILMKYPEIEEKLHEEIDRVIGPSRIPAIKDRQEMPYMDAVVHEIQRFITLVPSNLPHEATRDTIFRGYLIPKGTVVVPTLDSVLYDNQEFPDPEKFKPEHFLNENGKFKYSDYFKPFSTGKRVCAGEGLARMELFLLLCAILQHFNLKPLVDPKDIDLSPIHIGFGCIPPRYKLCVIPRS

[9] = Apparent terminal half-life (0-168h) of total radioactivity following single oral administration of [14C] aliskiren hemifumarate at 3 mg.Kg-1 level in marmoset; format: ADME, organism-based, Callithrix jacchus, Plasma; details: in vivo
[10] = Excretion of radioactivity (0-96h) in urine following single oral dose of 100 mg.Kg-1 [14C] aliskiren hemifumarate in rat; format: ADME, organism-based, Albino HAN:WIST; details: in vivo
[11] = Tmax of radioactivity following repeated oral administration of [14C] aliskiren hemifumarate at 100 mg.Kg-1 level studied after 2h of dosing on day 1 in rat; format: ADME, organism-based, Albino HAN:WIST; details: in vivo
[12] = Concentration of radioactivity in the brown fat following repeated oral administration of [14C] aliskiren hemifumarate at 100 mg.Kg-1 level studied at 2h after 10th dose in rat; format: ADME, organism-based, Albino HAN:WIST, Brown adipose tissue; details: in vivo
[13] = Excretion of radioactivity (0-96h) in faeces following single intravenous dose of 10 mg.Kg-1 [14C] aliskiren hemifumarate in rat; format: ADME, organism-based, Albino HAN:WIST, Feces; details: in vivo
[14] = % of radioactivity (24h) recovered in urine following single intravenous administration of 10 mg.Kg-1 [14C] aliskiren hemifumarate in male rat; format: ADME, organism-based, HAN:WIST(SPF); details: in vivo
[15] = biological target: Cytochrome P450 3A7 (Homo sapiens, UniProt P24462); assay: Metabolic clearance (ul.min.nmol-1 CYP) of aliskiren hemifumarate for CYP3A7 was determined in human liver microsome incubated with [14C]SPP100 hemifumarate; format: ADME; details: microsomes
Sequence of Cytochrome P450 3A7 (P24462 whole entry): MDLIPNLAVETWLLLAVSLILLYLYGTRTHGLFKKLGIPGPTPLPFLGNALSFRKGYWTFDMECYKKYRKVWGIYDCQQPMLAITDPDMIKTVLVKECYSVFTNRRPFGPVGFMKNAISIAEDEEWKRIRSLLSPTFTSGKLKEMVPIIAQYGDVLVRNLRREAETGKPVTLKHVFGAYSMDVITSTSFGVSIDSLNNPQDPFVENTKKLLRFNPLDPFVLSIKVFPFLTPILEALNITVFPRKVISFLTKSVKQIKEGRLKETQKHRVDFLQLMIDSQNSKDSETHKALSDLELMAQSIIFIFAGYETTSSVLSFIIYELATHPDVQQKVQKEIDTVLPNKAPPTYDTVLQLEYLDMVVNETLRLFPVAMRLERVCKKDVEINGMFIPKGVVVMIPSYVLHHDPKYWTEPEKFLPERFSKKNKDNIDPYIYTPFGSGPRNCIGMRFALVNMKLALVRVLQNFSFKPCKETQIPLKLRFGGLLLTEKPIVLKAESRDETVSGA

[16] = AUC (0-24h)/dose of aliskiren hemifumarate following 4 week oral dietary dosing of aliskiren hemifumarate at 500 mg.Kg-1 level in female mouse; format: ADME, organism-based, CB6F1-TGrasH2, Plasma; details: in vivo
[17] = Effect of 4 week oral dietary dosing of aliskiren hemifumarate at 2000 mg.Kg-1 level on density of uterine gland in female mouse; format: toxicity, organism-based, CB6F1-TGrasH2, Endometrial gland; details: in vivo, 672 h
[18] = AUC/dose (0-168h) of unlabeled aliskiren hemifumarate following single oral administration of aliskiren hemifumarate at 3 mg.Kg-1 level in marmoset; format: ADME, organism-based, Callithrix jacchus, Plasma; details: in vivo
[19] = Effect of 2 week oral dosing of aliskiren hemifumarate at 10 mg.Kg-1 level on hematological parameter values in male Callithrix jacchus; format: toxicity, organism-based, Plasma; details: marmoset, in vivo, 336 h
[20] = AUC(0-24h) of aliskiren hemifumarate following 2 week oral dosing of aliskiren hemifumarate at 10 mg.Kg-1 level studied on day 14 in female Callithrix jacchus; format: ADME, organism-based; details: marmoset, plasma
[21] = Cmaxspec of aliskiren hemifumarate following 2 week oral dosing of aliskiren hemifumarate at 50 mg.Kg-1 level studied on day 14 in female Callithrix jacchus; format: ADME, organism-based, Plasma; details: marmoset, in vivo, 336 h
[22] = Cmax of aliskiren hemifumarate following 4 week oral dietary dosing of aliskiren hemifumarate at 2000 mg.Kg-1 level in female mouse; format: ADME, organism-based; details: CB6F1-TGrasH2, mouse, in vivo
[23] = Effect of 4 week oral dietary dosing of aliskiren hemifumarate at 500 mg.Kg-1 level on spermatogenesis in male mouse; format: toxicity, organism-based, CB6F1-TGrasH2, Testis; details: in vivo, 672 h
[24] = AUC (0-96h) of unlabeled aliskiren hemifumarate following intravenous administration of aliskiren hemifumarate at 10 mg.Kg-1 level in rat; format: ADME, organism-based; details: Albino HAN:WIST, plasma
[25] = Tmax of aliskiren hemifumarate following 4 week oral dietary dosing of aliskiren hemifumarate at 1000 mg.Kg-1 level in female mouse; format: ADME, organism-based; details: CB6F1-TGrasH2, mouse, in vivo
[26] = Cmaxspec of aliskiren hemifumarate following 2 week oral dosing of aliskiren hemifumarate at 50 mg.Kg-1 level studied on day 1 in female Callithrix jacchus; format: ADME, organism-based, Plasma; details: marmoset, in vivo, 336 h
[27] = Cmaxspec of aliskiren hemifumarate following 2 week oral dosing of aliskiren hemifumarate at 10 mg.Kg-1 level studied on […] in male Callithrix jacchus; format: ADME, organism-based, Plasma; details: marmoset, in vivo, 336 h
[28] = t1/2 of aliskiren hemifumarate following 2 week oral dosing of aliskiren hemifumarate at 50 mg.Kg-1 level studied on day 1 in male Callithrix jacchus; format: ADME, organism-based; details: marmoset, plasma
[29] = Effect of 2 week oral dosing of aliskiren hemifumarate at 100 mg.Kg-1 level on blood urea nitrogen level in male Callithrix jacchus; format: toxicity, organism-based, Plasma; details: marmoset, 336 h
[30] = Effect of 2 week oral dosing of aliskiren hemifumarate at 100 mg.Kg-1 level on plasma creatinine level in male Callithrix jacchus; format: toxicity, organism-based; details: marmoset, 336 h
[31] = Cmaxspec of aliskiren hemifumarate following 2 week oral dosing of aliskiren hemifumarate at 50 mg.Kg-1 level studied on day 1 in male Callithrix jacchus; format: ADME, organism-based, Plasma; details: marmoset, in vivo, 336 h
[32] = AUCspec of aliskiren hemifumarate following 2 week oral dosing of aliskiren hemifumarate at 100 mg.Kg-1 level studied on day 1 in male Callithrix jacchus; format: ADME, organism-based, Plasma; details: marmoset, in vivo, 336 h
[33] = AUC of aliskiren hemifumarate following single dosing of SPP100B oral solution at 160 mg level studied on day 1 in men; format: ADME, organism-based; details: male, human, plasma
[34] = Cmax of aliskiren hemifumarate following single dosing of SPP100B oral solution at 160 mg level studied on day 1 in men; format: ADME, organism-based; details: male, human, plasma
[35] = Cmaxspec of aliskiren hemifumarate following 2 week oral dosing of aliskiren hemifumarate at 50 mg.Kg-1 level studied on day 14 in male Callithrix jacchus; format: ADME, organism-based, Plasma; details: marmoset, in vivo, 336 h
[36] = Cmax (0-168h) of unlabeled aliskiren hemifumarate following single intravenous administration of aliskiren hemifumarate at 1 mg.Kg-1 level in marmoset; format: ADME, organism-based, Callithrix jacchus; details: plasma
[37] = Plasma clearance (0-168h) of unlabeled aliskiren hemifumarate following single intravenous administration of aliskiren hemifumarate at 1 mg.Kg-1 level in marmoset; format: ADME, organism-based, Callithrix jacchus; details: in vivo
[38] = AUC(0-24)/dose of aliskiren hemifumarate following repeated oral administration of [14C] aliskiren hemifumarate at 100 mg.Kg-1 level studied in rat; format: ADME, organism-based, Albino HAN:WIST, Plasma; details: in vivo
[39] = Tmax of aliskiren hemifumarate following single dosing of SPP100B oral solution at 80 mg level studied on day 1 in men; format: ADME, organism-based; details: male, human, plasma
[40] = Bioavailability (0-96h) of unlabeled aliskiren hemifumarate following oral administration of aliskiren hemifumarate at 100 mg.Kg-1 level in rat; format: ADME, organism-based; details: Albino HAN:WIST, plasma

In the case of `COCCCOc1cc(C[C@@H](C[C@H](N)[C@@H](O)C[C@H](C(=O)NCC(C)(C)C(N)=O)C(C)C)C(C)C)ccc1OC`, the CL/F [1] was 4230 mL/min, the Compound recovery [2] was over 40% and the Compound recovery [3] was 60.4%.
Compound `COCCCOc1cc(C[C@@H](C[C@H](N)[C@@H](O)C[C@H](C(=O)NCC([14CH3])([14CH3])C(N)=O)C(C)C)C(C)C)ccc1OC.O=C(O)/C=C/C(=O)O` has a Radiolabel recovery [4] of 7.51%, an Activity [5] of 99.6% and a Radiolabel recovery [6] of 0.17%. The Radiolabel recovery [7] was 1.82%, the Activity [8] was 0.06% and the t1/2 [9] was 45.5 h. For the same compound, the Radiolabel recovery [10] was 0.69%, the “Tmax(1)” value [11] was 2 h and the Radiolabel recovery [12] was “OUTCOME = Detected”. It also gave a Radiolabel recovery [13] of 90%, a Radiolabel recovery [14] of 6.2% and a CL [15] of 3.5 µL·min/nmol.
With `COCCCOc1cc(C[C@@H](C[C@H](N)[C@@H](O)C[C@H](C(=O)NCC(C)(C)C(N)=O)C(C)C)C(C)C)ccc1OC.COCCCOc1cc(C[C@@H](C[C@H](N)[C@@H](O)C[C@H](C(=O)NCC(C)(C)C(N)=O)C(C)C)C(C)C)ccc1OC.O=C(O)/C=C/C(=O)O` [ALISKIREN FUMARATE] the AUC normalised [16] was 1.71 ((ng/mL).hours)/(mg/kg/day), the “Change in density of uterine gland” value [17] was “OUTCOME = Decreased. No animals died during the study” and the AUC normalised [18] was 1.52 (umol.h/L)/(mg/kg). The Change in hematology [19] was “OUTCOME = Hematological parameter values did not differ from control values. No animals died during the study”, the AUC at 24 h [20] was 29000 ng·h/mL and the Cmax normalised [21] was 0.202 (ug/ml)/(mg/kg). The Cmax [22] was 1230 ng/mL, the Change in spermatogenesis [23] was “OUTCOME = No abnormalities. No animals died during the study” and the AUC(0-t) at 96 h [24] was 12.6 µM·h. The Tmax [25] was 3 h, the Cmax normalised [26] was 0.177 (ug/ml)/(mg/kg) and the Cmax normalised [27] was 0.577 (ug/ml)/(mg/kg). For the same compound, the half-life [28] was 7.37 h, the BUN_CHANGE_BY [29] was 166% and the CREAT_CHANGE_BY [30] was 130%. For the same compound, the Cmax normalised [31] was 0.126 (ug/ml)/(mg/kg), the AUC normalised [32] was 0.764 ((ug.h.ml-1)/(mg/kg) and the AUC [33] was 215 ng·h/mL. For the same compound, the Cmax [34] was 21.5 ng/mL, the Cmax normalised [35] was 0.246 (ug/ml)/(mg/kg) and the Cmax [36] was 14.2 µM. For the same compound, the Plasma clearance [37] was 0.036 L·h/kg, the “AUC(0-24) normalised” value [38] was 17.2 (nmol.h.L-1)/(mg/kg) and the Tmax [39] was 2.8 h. It also gave a bioavailability [40] of 2.4%.

Source: ChEMBL document CHEMBL3508693 (2016)
